Data published in patent publication US20240148821A1, “PHARMACEUTICAL USE OF CYCLIC PEPTIDE COMPOUND” (CHUGAI SEIYAKU KABUSHIKI KAISHA, priority 2021, published 2024).
Numbered stars: 1 amine (or outer) side, 2 acyl side, 3 side chain; on linkers, the order of the positions; unused ones are H or OH. Bridge positions count the residues as written; N and C are the ends. Square brackets hold non-standard residues; d marks the D form. Peptide text beside a SMILES is read from it. * marks the point of attachment. hPhe(3,5-F2-4-CF3) = N[C@@H](CCc1cc(F)c(C(F)(F)F)c(F)c1)C(=O)O; hPhe(3-Cl-4-CF3) = N[C@@H](CCc1ccc(C(F)(F)F)c(Cl)c1)C(=O)O; hPhe(3-F,4-CF3) = N[C@@H](CCc1ccc(C(F)(F)F)c(F)c1)C(=O)O; NEtPhe(4-CF3) = CCN[C@@H](Cc1ccc(C(F)(F)F)cc1)C(=O)O; NMePhe(4-CF3) = CN[C@@H](Cc1ccc(C(F)(F)F)cc1)C(=O)O; NMeAbu(4,4,4-F3) = CN[C@@H](CC(F)(F)F)C(=O)O; NMePhe(4-Me) = CN[C@@H](Cc1ccc(C)cc1)C(=O)O; NMedβ3hAla = C[C@H](CC(=O)[*:2])N(C)[*:1]; NMeGly(cPent) = CN[C@H](C(=O)O)C1CCCC1; Pro(4,4-F2) = O=C(O)[C@@H]1CC(F)(F)CN1; NMeCha = CN[C@@H](CC1CCCCC1)C(=O)O; Hyp = O=C(O)[C@@H]1C[C@@H](O)CN1; NMeChg = CN[C@H](C(=O)O)C1CCCCC1; NMeI = CC[C@H](C)[C@H](NC)C(=O)O; NMeD = CN[C@@H](CC(=O)O)C(=O)O; NMeL = CN[C@@H](CC(C)C)C(=O)O; NMeV = CN[C@H](C(=O)O)C(C)C; d(β3hA) = C[C@@H](N)CC(=O)O; Morpholide = C1CN(*)CCO1; NMeA = CN[C@@H](C)C(=O)O; NMeAib = CNC(C)(C)C(=O)O; Piperidide = C1CCN(*)CC1; Pyrrolidide = C1CCN(*)C1; dNMeA = CN[C@H](C)C(=O)O; Ac5c = NC1(C(=O)O)CCCC1; Aze = O=C(O)[C@@H]1CCN1; Ac4c = NC1(C(=O)O)CCC1; Sar = CNCC(=O)O

Assays:
[1] = target: protein-protein interaction between Kras and SOS1 (biotin-tagged human Kras loaded with GDP, His-tagged human SOS1) (Homo sapiens (Human), UniProt P01116, G12D); assay: Protein-protein interaction inhibition between Kras and SOS1 (KrasG12D-SOS PPI) using AlphaScreen; type: biochemical; settings: AlphaScreen; biotin-tagged human Kras loaded with GDP, His-tagged human SOS1; read-out: KRAS G12D-SOS PPI IC50;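 also: kras produced in E. coli, Ni-coupled donor beads and streptavidin acceptor beads, excitation 680 nm with emission detected at 520–620 nm via singlet oxygen transfer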
[2] = system: Human pancreatic cancer cell line AsPC-1 (G12D mutation Kras); assay: AsPC-1 cell growth inhibition (AsPC-1 CGI); type: cell-based; settings: read-out: AsPC-1 cell growth inhibition, 50% growth inhibitory concentration (IC50 value); 96 hours, CellTiter-Glo, values classified in ranges
Description: Test compounds were serially dilated with dimethyl sulfoxide, and 200 nL was then dispensed to a U-bottom 96-well plate using Labcyte Echo. […] The cell suspension was dispensed to a. plate containing a test compound at 100 μL per well and incubated at 37° C. in a 5% carbon dioxide gas incubator. 96 hours later, 80 μL of CellTiter-Glo (Promega) was added to each well and fluorescence was measured.

SMILES | IC50 [1] [nM] | IC50 [2] [nM]
CCO[C@@H]1C[C@H]2C(=O)NC3(CCC3)C(=O)N(C)[C@@H](C3CCCC3)C(=O)N(C)[C@H](C)CC(=O)N(C)[C@@H](CC(C)C)C(=O)N[C@@H]([C@@H](C)CC)C(=O)N(C)[C@@H](C)C(=O)N3CC[C@H]3C(=O)N(CC)[C@@H](Cc3ccc(C(F)(F)F)cc3)C(=O)N(C)CC(=O)N[C@@H](CCc3cc(F)c(C(F)(F)F)c(F)c3)C(=O)N2C1 [Compound 132] (cyclo([Ac4c][NMeGly(cPent)][NMedβ3hAla][NMeL]I[NMeA][Aze][NEtPhe(4-CF3)][Sar][hPhe(3,5-F2-4-CF3)][Hyp](Et))) | 0.96 | ≤ 20
CCO[C@@H]1C[C@H]2C(=O)NC3(CCCC3)C(=O)N(C)[C@@H](C3CCCC3)C(=O)N(C)[C@H](C(=O)N3CCOCC3)CC(=O)N(C)[C@@H](CC(C)C)C(=O)N[C@@H]([C@@H](C)CC)C(=O)N(C)[C@@H](C)C(=O)N3CC[C@H]3C(=O)N(C)[C@@H](CC3CCCCC3)C(=O)N(C)CC(=O)N[C@@H](CCc3cc(F)c(C(F)(F)F)c(F)c3)C(=O)N2C1 [Compound 1250] ([NMeL]I[NMeA][Aze][NMeCha][Sar][hPhe(3,5-F2-4-CF3)][Hyp](Et)[Ac5c][NMeGly(cPent)][NMeD]-Morpholide; lactam N-11) | 0.63 | ≤ 20
CC[C@H](C)[C@@H]1NC(=O)[C@H](CC(C)C)N(C)C(=O)C[C@@H](C)N(C)C(=O)[C@H](CC(C)C)NC(=O)C(C)(C)N(C)C(=O)[C@H](CC(C)C)NC(=O)[C@H](CCc2ccc(C(F)(F)F)c(Cl)c2)NC(=O)CN(C)C(=O)[C@H](CC2CCCCC2)N(C)C(=O)CN(C)C(=O)CN(C)C1=O [Compound 1076] (cyclo(I[Sar][Sar][NMeCha][Sar][hPhe(3-Cl-4-CF3)]L[NMeAib]L[NMedβ3hAla][NMeL])) | 19 | > 500
CCO[C@@H]1C[C@H]2C(=O)NC3(CCCC3)C(=O)N(C)[C@@H](C3CCCCC3)C(=O)N(C)[C@H](C(=O)N3CCCC3)CC(=O)N(C)[C@@H](CC(F)(F)F)C(=O)N[C@@H]([C@@H](C)CC)C(=O)N(C)CC(=O)N(C)CC(=O)N(C)[C@@H](Cc3ccc(C(F)(F)F)cc3)C(=O)N(C)CC(=O)N[C@@H](CCc3cc(F)c(C(F)(F)F)c(F)c3)C(=O)N2C1 [Compound 1271] ([NMeAbu(4,4,4-F3)]I[Sar][Sar][NMePhe(4-CF3)][Sar][hPhe(3,5-F2-4-CF3)][Hyp](Et)[Ac5c][NMeChg][NMeD]-Pyrrolidide; lactam N-11) | 0.49 | ≤ 20
CC[C@H](C)[C@@H]1NC(=O)[C@H](CC(C)C)N(C)C(=O)C[C@@H](C(=O)N2CCCCC2)N(C)C(=O)[C@H](C(C)C)N(C)C(=O)C2(CCCC2)NC(=O)[C@@H]2CCCN2C(=O)[C@H](CCc2ccc(C(F)(F)F)c(F)c2)NC(=O)CN(C)C(=O)[C@H](CC2CCCCC2)N(C)C(=O)CN(C)C(=O)[C@@H]2CCN2C1=O [Compound 139] ([NMeL]I[Aze][Sar][NMeCha][Sar][hPhe(3-F,4-CF3)]P[Ac5c][NMeV][NMeD]-Piperidide; lactam N-11) | 8.4 | > 500
CC[C@H](C)[C@@H]1NC(=O)[C@H](CC(C)C)N(C)C(=O)C[C@@H](C)N(C)C(=O)[C@H]([C@@H](C)CC)N(C)C(=O)C2(CCCC2)NC(=O)[C@@H]2CC(F)(F)CN2C(=O)[C@H](CCc2ccc(C(F)(F)F)c(Cl)c2)NC(=O)CN(C)C(=O)[C@H](Cc2ccc(C(F)(F)F)cc2)N(C)C(=O)[C@@H]2CCN2C(=O)[C@H](C)N(C)C1=O [Compound 668] (cyclo([Ac5c][NMeI][NMedβ3hAla][NMeL]I[NMeA][Aze][NMePhe(4-CF3)][Sar][hPhe(3-Cl-4-CF3)][Pro(4,4-F2)])) | 1.9 | ≤ 20
CC[C@H](C)[C@@H]1NC(=O)[C@H](CC(C)C)N(C)C(=O)C[C@@H](C(=O)N(C)C)N(C)C(=O)[C@H]([C@@H](C)CC)N(C)C(=O)C2(CCCC2)NC(=O)[C@@H]2CCCN2C(=O)[C@H](CCc2ccc(C(F)(F)F)c(F)c2)NC(=O)CN(C)C(=O)[C@H](C2CCCC2)N(C)C(=O)[C@@H]2CCN2C(=O)[C@H](C)N(C)C1=O [Compound 555] ([NMeL]I[NMeA][Aze][NMeGly(cPent)][Sar][hPhe(3-F,4-CF3)]P[Ac5c][NMeI][NMeD]-NMe2; lactam N-11) | 2.6 | ≤ 20
CC[C@H](C)[C@@H]1NC(=O)[C@H](C)N(C)C(=O)C[C@@H](C)NC(=O)[C@H](C2CCCC2)N(C)C(=O)C2(CCCC2)NC(=O)[C@@H]2CCCN2C(=O)[C@H](CCc2ccc(C(F)(F)F)c(Cl)c2)NC(=O)[C@@H](C)N(C)C(=O)[C@H](Cc2ccc(C)cc2)N(C)C(=O)[C@@H]2CCN2C(=O)[C@H](C)N(C)C1=O [Compound 1536] (cyclo([Ac5c][NMeGly(cPent)][d(β3hA)][NMeA]I[NMeA][Aze][NMePhe(4-Me)][dNMeA][hPhe(3-Cl-4-CF3)]P)) | 21 | > 500
CCO[C@@H]1C[C@H]2C(=O)NC3(CCCC3)C(=O)N(C)[C@@H]([C@@H](C)CC)C(=O)N(C)[C@H](C(=O)N3CCCC3)CC(=O)N(C)[C@@H](CC(C)C)C(=O)N[C@@H]([C@@H](C)CC)C(=O)N(C)[C@@H](C)C(=O)N3CC[C@H]3C(=O)N(C)[C@@H](Cc3ccc(C(F)(F)F)cc3)C(=O)N(C)CC(=O)N[C@@H](CCc3cc(F)c(C(F)(F)F)c(F)c3)C(=O)N2C1 [Compound 1210] ([NMeL]I[NMeA][Aze][NMePhe(4-CF3)][Sar][hPhe(3,5-F2-4-CF3)][Hyp](Et)[Ac5c][NMeI][NMeD]-Pyrrolidide; lactam N-11) | 0.74 | ≤ 20
